Laboratory results as given in patent publication US20230285374A1, “THERAPEUTIC METHODS USING VADADUSTAT” (Akebia Therapeutics, Inc., priority 2019, published 2023).

Test system: subjects with anemia and Hemodialysis-Dependent Chronic Kidney Disease (HD-CKD) converting from ESA
Test: Phase 3 randomized, double-blinded, active-controlled study in Hemodialysis-Dependent CKD (HD-CKD), Compound 1 vs darbepoetin alfa, 52 weeks
Type: in vivo, human
Text: This example describes a phase 3 randomized, double-blinded, active-controlled study to evaluate the efficacy and safety of oral Compound 1 for the maintenance treatment of anemia in subjects with Hemodialysis-Dependent Chronic Kidney Disease (HD-CKD) in approximately 300 subjects. Efficacy and safety of Compound 1 was compared with darbepoetin alfa for the maintenance treatment of anemia in subjects with DD-CKD after conversion from current ESA therapy.
Subjects deemed eligible for into the study included those who: • Be at least 20 years of age, inclusive; • Have diagnosis of Chronic Kidney Disease; • Be receiving hemodialysis or hemodialysis filtration at least three (3) times per week for ≥12 weeks before screening; • Be receiving the same formulation of ESA using the same administration route and the same dose interval (the dose interval should be the one described in the package insert for the ESA formulation) within 8 weeks prior to the first day of the screening period, using the dosages described below: Epoetin alfa and epoetin beta and kappa: ≥9,000 IU every weeks Darbepoetin alfa: ≥60 μg every weeks Epoetin beta pegol: ≥250 μg every 4 weeks • Have a mean of the most recent Hb levels at screening in the range of ≥9.5 to ≥12.0 g/dL. • Have a difference of <1.5 g/dL in Hb for the latest two tests in the screening period; • Have serum ferritin values of ≥100 ng/mL or transferrin saturation of ≥20% during the screening period; and • Have folic acid and vitamin B12 values above standard minimum values during the screening period.
Subjects deemed ineligible for inclusion in the study included those who: • Have anemia due to a cause other than CKD; • Have active bleeding or blood loss; • Have received a red blood cell transfusion; • Have uncontrolled hypertension; • Have active ocular fundus disease or cannot undergo an ocular fundus examination; • Have been diagnosed with cardiovascular disease, malignancy, or hemisiderosis;
Average Hb level at weeks 20 and 24 of the treatment period.
Hb level at each treatment visit; and
The proportion of patients within the target Hb range (above: ≥12.0 g/dL; within: 10.0-12.0 g/dL; below: <10.0 g/dL).
Safety endpoints for this study were defined as follows: • Adverse events (AEs); • Adverse drug reactions; and
Other endpoints for this study were defined as follows: • Iron-related parameters: serum ferritin, transferrin saturation (TSAT), total iron-binding capacity (TIBC), hepcidin, serum iron, and monthly dose of iron by any route of administration (oral and intravenous); and • Red blood cell indices.
Noninferiority: Compound 1 was considered noninferior to Darbepoetin alfa if the 95% confidence interval (CI) lower limit for the difference between Compound 1 and Darbepoetin alfa in the Least Squares (LS) Mean of the average Hb at weeks 20 and 24 was more than or equal to the predefined noninferiority margin of −0.75 g/dL. Difference in LS Mean refers to mixed-model repeated measures (MMRM) with an unstructured covariance matrix within patients.
Subjects were randomized 1:1 to either • Compound 1 with an initial dose of 300 mg/once daily and adjusted to 150-600 mg/once daily; or • Darbepoetin alfa (IV) initial dose is as follows:
The aim is to maintain a Hb level of 10.0-12.0 g/dL throughout the study.
Dose Adjustment Algorithm: • Increases in the dose were not allowed to occur more frequently than once every 4 weeks. Decreases in dose were allowed to occur more frequently. Frequent dose adjustments were avoided. • If the Hb rose rapidly, the dose was reduced. • If the Hb fell below 10.0 g/dL, the dose was increased. • If the Hb level exceeded 12.0 g/dL, the dose was reduced.
All subjects start with an initial dose of 300 mg/day at baseline visit. Dose levels of Compound 1 include 150, 300, 450, and 600 mg. Each subject took his/her first dose of study medication at the investigative site at the baseline visit. Thereafter, study medication was taken once daily on an outpatient basis. […]

[1] = week 52 (LOCF) compared to baseline

Compound: O=C(O)CNC(=O)c1ncc(-c2cccc(Cl)c2)cc1O [Compound 1, Vadadustat]
- Deaths due to AEs (52 weeks): 2 (1.2) n (%)
- deaths reported (52 weeks, assessed as not related to study drug): two
- LSMean of average Hb, weeks 20 and 24 (HD-CKD patients): 10.61 g/dL
- mean Hb level at week 52 (HD-CKD patients): 10.39 g/dL
- Difference (VDT-DA) in LSMean of average Hb, weeks 20 and 24 (HD-CKD patients, noninferiority margin −0.75 g/dL): -0.05 g/dL
- proportion of patients with Hb levels within the target range of 10.0-12.0 g/dL (baseline): 81.5%
- mean MCHC level, change (baseline to week 52): significantly increased
- mean MCH level, change (baseline to week 52 (LOCF)): significantly increased
- mean MCV level, change (baseline to week 52 (LOCF)): significantly increased
- mean RDW, change (baseline to week 52 (LOCF)): significantly decreased
- mean hepcidin level, change (baseline to week 52 (LOCF)): significantly decreased
- mean total iron-binding capacity (TIBC), change (baseline to week 52 (LOCF)): significantly increased
- LSMean Hb levels at week 52, subgroup analysis by patient background (dose adjustment 150-600 mg/day, target range 10.0-12.0 g/dL): maintained within the target range of 10.0-12.0 g/dL irrespective of the patient backgrounds
- Adverse drug reaction (human, in vivo, 52 weeks): 18 (11.1) n (%)
- Cardiovascular event, cardiac failure (AE of special interest) (human, in vivo, 52 weeks): 13 (8.0) n (%)
- Diarrhea (human, in vivo, 52 weeks): 25 (15.4) n (%)
- Discontinuation due to AEs (human, in vivo, 52 weeks): 16 (9.9) n (%)
- Dose reduction or interruption of study drug due to AEs (human, in vivo, 52 weeks): 13 (8.0) n (%)
- Hyperkalemia (AE of special interest) (human, in vivo, 52 weeks): 1 (0.6) n (%)
- Malignancy (AE of special interest) (human, in vivo, 52 weeks): 7 (4.3) n (%)
- Nasopharyngitis (human, in vivo, 52 weeks): 74 (45.7) n (%)
- Pulmonary hypertension (AE of special interest) (human, in vivo, 52 weeks): 0 (0.0) n (%)
- Retinal disorder (AE of special interest) (human, in vivo, 52 weeks): 21 (13.0) n (%)
- Retinal hemorrhage (human, in vivo, 52 weeks): 9.9%
- Serious AEs (human, in vivo, 52 weeks): 41 (25.3) n (%)
- Serious adverse drug reaction (human, in vivo, 52 weeks): 0 (0.0) n (%)
- Shunt stenosis (human, in vivo, 52 weeks): 23 (14.2) n (%)
- Subjects with ≥ 1 AE (human, in vivo, 52 weeks): 154 (95.1) n (%)
- diarrhea (human, in vivo, 52 weeks): 15.4%
- incidence of AEs (human, in vivo, 52 weeks): 95.1%
- incidence of serious AEs (human, in vivo, 52 weeks): 25.3%
- nasopharyngitis (human, in vivo, 52 weeks): 45.7%
- shunt stenosis (human, in vivo, 52 weeks): 14.2%
- patients with a rapid rise in Hb levels (>2 g/dL/4 weeks) (in vivo): No patients
- proportion of patients with an Hb excursion of ≥12 g/dL (in vivo): 25.3%
- proportion of patients with an Hb excursion of ≥13 g/dL (in vivo): 3.7%
- proportion of patients with Hb levels within the target range of 10.0-12.0 g/dL (week 24): 75.4%
- proportion of patients with Hb levels within the target range of 10.0-12.0 g/dL (week 52): 75.7%
- TSAT, change [1]: no significant differences
- serum ferritin, change [1]: no significant differences
- patients maintained within the target Hb range (weeks 24 and 52, dose adjusted per algorithm): approximately 80%
